In assay [1] the test system is collagen-induced platelet aggregation. The experiment in a line: Platelet aggregation suppressing effect (collagen-induced aggregation in platelet rich plasma). To be noted: human PRP, 37° C., collagen as inducer, read-out: Inhibitory effect of collagen-induced platelet aggregation IC50. It counts as cell-based. The procedure:
Human blood was collected using 3.13% sodium citrate in a volume 1/10 of the blood volume, as an anticoagulant. The collected blood was centrifuged at 180 g for 10 minutes to separate platelet rich plasma (PRP) from the blood. After collecting the PRP fraction in the upper layer, the lower layer was further centrifuged at 1600 g for 10 minutes to fractionate platelet poor plasma (PPP) in the upper layer. One μl of a solution of a compound obtained in the Examples was added to 200 μl of PRP, and the mixture was allowed to stand at 37° C. for 2 minutes. Subsequently, 2 μl of collagen was added thereto, so as to induce platelet aggregation. The platelet aggregation rate was measured using PAM-12C(SSR Engineering, Inc.).

The target of assay [2] is T1, Cyclooxygenase-1 (COX-1) (Ovis aries, UniProt P05979).
T1 construct: purchased Cayman Chemical Company 560101
T1 sequence (P05979 25-600): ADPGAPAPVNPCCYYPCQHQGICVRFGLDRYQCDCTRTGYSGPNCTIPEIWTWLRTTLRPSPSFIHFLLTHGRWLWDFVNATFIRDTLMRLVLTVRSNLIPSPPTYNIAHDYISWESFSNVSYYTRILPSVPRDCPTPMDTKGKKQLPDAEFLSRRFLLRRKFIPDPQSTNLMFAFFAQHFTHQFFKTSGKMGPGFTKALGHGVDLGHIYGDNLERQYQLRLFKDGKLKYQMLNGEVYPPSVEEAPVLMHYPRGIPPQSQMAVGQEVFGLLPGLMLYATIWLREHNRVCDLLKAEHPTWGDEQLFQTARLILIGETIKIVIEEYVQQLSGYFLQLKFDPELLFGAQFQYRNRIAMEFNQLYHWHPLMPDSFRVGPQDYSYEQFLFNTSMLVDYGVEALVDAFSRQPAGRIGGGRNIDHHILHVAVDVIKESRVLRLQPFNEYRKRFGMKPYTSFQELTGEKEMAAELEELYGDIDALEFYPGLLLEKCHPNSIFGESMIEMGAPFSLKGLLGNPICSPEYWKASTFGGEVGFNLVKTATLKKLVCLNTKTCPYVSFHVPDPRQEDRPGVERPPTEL
The experiment in a line: COX-1 inhibition, COX Inhibitor Screening Assay Kit (PGF2α production, ELISA). It counts as biochemical. To be noted: compound 50 μM. The text has this: For the measurement of the inhibitory activity of the compounds obtained in the Examples against COX-1 and COX-2, a COX Inhibitor Screening Assay Kit manufactured by Cayman Chemical Company (Catalog Nos. 560101 and 560121) was used.
Before starting the measurement, a reaction buffer, heme, arachidonic acid, SnCl2, EIA buffer, a washing buffer, prostaglandin (PG)-screening EIA standard solution, PG-screening acetylcholinesterase (AchE), a tracer […], and PG-screening EIA antiserum were provided.
A reaction solution containing a compound of the Examples (50 μM) and COX-1, or a reaction solution containing a compound of the Examples (300 μM) and COX-2 was allowed to stand at 37° C. for 10 minutes, then 10 μl of arachidonic acid was added thereto, and the resultant mixture was allowed to stand at 37° C. for 2 minutes. After the reaction, 50 μl of 1 N hydrochloric acid was added to the reaction mixture to stop the reaction, and 100 μl of a SnCl2 solution was added thereto. The resultant mixture was allowed to stand at room temperature for 5 minutes.
50 μl of antiserum (rabbit anti-PGF2α antibody) was added to each well of a 96-well plate coated with mouse anti-rabbit IgG. Then, 50 μl of a solution prepared by diluting the reaction solution for PGF2α production to 2000-folds, and 50 μl of an AchE tracer were added sequentially to the wells, and the plate was kept at room temperature for 18 hours. Each well washed 5 times with the washing buffer to remove excessive AchE tracer, and then 200 μl of Ellman reagent was added to each well. The plate was kept in the dark room for 60 minutes, and then, absorbance at 405 nm was measured.
A standard curve was produced using a PG-screening EIA standard solution, and the amount of PGF2α production was determined from the absorbance obtained as described above. The COX-1 inhibition rate at 50 μM of the compound of the Examples, and the COX-2 inhibition rate at 300 μM of the compound of the Examples were calculated.

For the compound `COc1ccc(-n2nc(C(=O)N3CCCCN3)cc2-c2ccccn2)nn1` [Example 5, 1-[1-(6-Methoxy-3-pyridazinyl)-5-(2-pyridyl)-1H-pyrazole-3-carbonyl]hexahydropyridazine], the IC50 (as a rule, the concentration that inhibits the measured activity by half) in assay [1] worked out at 210 nM. Besides, the “COX-1 inhibitory action at 50 μM (% inhibition)” value in assay [2] is −35.9 % inhibition.
Taken in the same sequence, the figures for `COC1CCN(C(=O)c2cc(-c3cnc(C)cn3)n(-c3ccc(C)nc3)n2)CC1` [Example 3, 1-[5-(5-Methyl-2-pyrazinyl)-1-(6-methyl-3-pyridyl)-1H-pyrazole-3-carbonyl]-4-methoxypiperidine] were 220 nM and −21.2 % inhibition.
In the same order, the values of `COc1ccc(-n2nc(C(=O)N3CCOC[C@H]3C)cc2-c2ccccn2)nn1` [Example 107, (−)(3R)-4-[1-(6-Methoxypyridazin-3-yl)-5-(2-pyridyl)-1H-pyrazole-3-carbonyl]-3-methylmorpholine] are 430 nM and −3.9 % inhibition.
Take `COc1ccc(-n2nc(C(=O)N3CCCCN3)cc2-c2cscn2)cn1` [Example 138, 1-[1-(6-Methoxy-3-pyridyl)-5-(thiazol-4-yl)-1H-pyrazole-3-carbonyl]hexahydropyridazine]: the 50% inhibitory concentration (IC50) in assay [1] was 41 nM.
As to `COc1ccc(-n2nc(C(=O)N3CCN(C)CC3)cc2-c2ccc[nH]2)nn1` [Example 12, 1-[1-(6-Methoxy-3-pyridazinyl)-5-(1H-pyrrol-2-yl)-1H-pyrazole-3-carbonyl]-4-methylpiperazine], the IC50 in assay [1] is 320 nM. In assay [2], the “COX-1 inhibitory action at 50 μM (% inhibition)” value is given as 25.9 % inhibition.
For the compound `COc1ccc(-n2nc(C(=O)N3CCCC(OC)C3)cc2-c2ccccn2)cn1` (centres unmarked) [Example 34, 1-[1-(6-Methoxy-3-pyridyl)-5-(2-pyridyl)-1H-pyrazole-3-carbonyl]-3-methoxypiperidine], the IC50 in assay [1] worked out at 63 nM. For the same compound, the “COX-1 inhibitory action at 50 μM (% inhibition)” value in assay [2] is reported as −18.4 % inhibition.
Consider `COc1ccc(-n2nc(C(=O)N3CCC(OC)CC3)cc2-c2ccccn2)cn1` [Example 20, 1-[1-(6-Methoxy-3-pyridyl)-5-(2-pyridyl)-1H-pyrazole-3-carbonyl]-4-methoxypiperidine], for which the IC50 in assay [1] turned out to be 120 nM. For the same compound, in assay [2], the “COX-1 inhibitory action at 50 μM (% inhibition)” value is reported as −17.0 % inhibition.
Regarding `COc1ccc(-n2nc(C(=O)N3CCN(C)C(=O)C3)cc2-c2ccn(C)c2)nn1` [Example 124, 1-[1-(6-Methoxy-3-pyridazinyl)-5-(1-methyl-1H-pyrrol-3-yl)-1H-pyrazole-3-carbonyl]-4-methyl-3-oxopiperazine], in assay [1], the IC50 stood at 440 nM. Besides, in assay [2], the “COX-1 inhibitory action at 50 μM (% inhibition)” value amounted to 8.3 % inhibition.
Consider `COc1ccc(-c2cc(C(=O)N3CCC(OC)CC3)nn2-c2ccc(C)nc2)nc1` [Example 4, 1-[5-(5-Methoxy-2-pyridyl)-1-(6-methyl-3-pyridyl)-1H-pyrazole-3-carbonyl]-4-methoxypiperidine], for which the IC50 in assay [1] is 210 nM. Also, in assay [2], the “COX-1 inhibitory action at 50 μM (% inhibition)” value is listed as −13.3 % inhibition.
With `COc1ccc(-n2nc(C(=O)N3CCC(OC)CC3)cc2-c2cscn2)nn1` [Example 132, 1-[1-(6-Methoxy-3-pyridazinyl)-5-(thiazol-4-yl)-1H-pyrazole-3-carbonyl]-4-methoxypiperidine], the IC50 in assay [1] was determined as 190 nM.
As for `COc1ccc(-n2nc(C(=O)N3CCN(C)CC3)cc2-c2cscn2)cn1` [Example 127, 1-[1-(6-Methoxy-3-pyridyl)-5-(thiazol-4-yl)-1H-pyrazole-3-carbonyl]-4-methylpiperazine], the IC50 in assay [1] came to 230 nM. In addition, the “COX-1 inhibitory action at 50 μM (% inhibition)” value in assay [2] is −21.2 % inhibition.
Regarding `COc1ccc(-n2nc(C(=O)N3CCOCC3)cc2-c2cc[nH]n2)cn1` [Example 33, 4-[1-(6-Methoxy-3-pyridyl)-5-(1H-pyrazol-3-yl)-1H-pyrazole-3-carbonyl]morpholine], the IC50 in assay [1] was found to be 97 nM. Besides, the “COX-1 inhibitory action at 50 μM (% inhibition)” value in assay [2] is reported as −9.5 % inhibition.
Turning to `COc1ccc(-n2nc(C(=O)N3CCCOCC3)cc2-c2cnn(C)c2)cn1` [Example 136, 4-[1-(6-Methoxy-3-pyridyl)-5-(1-methyl-1H-pyrazol-4-yl)-1H-pyrazole-3-carbonyl]-1,4-oxazepane], the IC50 in assay [1] turned out to be 360 nM.
In the case of `COc1ccc(-n2nc(C(=O)N3CCN(C)C(=O)C3)cc2-c2cnn(C)c2)cn1` [Example 121, 1-[1-(6-Methoxy-3-pyridyl)-5-(1-methyl-1H-pyrazol-4-yl)-1H-pyrazole-3-carbonyl]-4-methyl-3-oxopiperazine], the IC50 in assay [1] was 710 nM. In assay [2], the “COX-1 inhibitory action at 50 μM (% inhibition)” value is −0.7 % inhibition.
Consider `COc1ccc(-n2nc(C(=O)N3CCOCC3)cc2-c2cscn2)cn1` [Example 118, 4-[1-(6-Methoxy-3-pyridyl)-5-(thiazol-4-yl)-1H-pyrazole-3-carbonyl]morpholine], for which the IC50 in assay [1] turned out to be 79 nM. Moreover, the “COX-1 inhibitory action at 50 μM (% inhibition)” value in assay [2] was −12.7 % inhibition.
With `COc1ccc(-n2nc(C(=O)N3CCC(OC)CC3)cc2-c2cscn2)cn1` [Example 128, 1-[1-(6-Methoxy-3-pyridyl)-5-(thiazol-4-yl)-1H-pyrazole-3-carbonyl]-4-methoxypiperidine], in assay [1], the IC50 came out at 100 nM.
With `COc1ccc(-n2nc(C(=O)N3CCC(F)(F)CC3)cc2-c2cnn(C)c2)nn1` [Example 141, 1-[1-(6-Methoxy-3-pyridazinyl)-5-(1-methyl-1H-pyrazol-4-yl)-1H-pyrazole-3-carbonyl]-4,4-difluoropiperidine], the IC50 in assay [1] worked out at 190 nM. Moreover, the “COX-1 inhibitory action at 50 μM (% inhibition)” value in assay [2] is 24.4 % inhibition.
For `COc1ccc(-n2nc(C(=O)N3CCC[C@H]3CF)cc2-c2ccccn2)nn1` [Example 31, (2S)-1-[1-(6-Methoxy-3-pyridazinyl)-5-(2-pyridyl)-1H-pyrazole-3-carbonyl]-2-fluoromethylpyrrolidine], in assay [1], the IC50 was found to be 180 nM. In addition, the “COX-1 inhibitory action at 50 μM (% inhibition)” value in assay [2] was −10.5 % inhibition.
On to `COc1ccc(-n2nc(C(=O)N3CCCCC3C(N)=O)cc2-c2cscn2)cn1` (centres unmarked) [Example 129, 1-[1-(6-Methoxy-3-pyridyl)-5-(thiazol-4-yl)-1H-pyrazole-3-carbonyl]-2-carbamoylpiperidine], for which the IC50 in assay [1] is 260 nM.
Still for that read-out and setting: as for `COc1ccc(-n2nc(C(=O)N3CCCCN3)cc2-c2cnn(C)c2)cn1` [Example 134, 1-[1-(6-Methoxy-3-pyridyl)-5 (1-methyl-1H-pyrazol-4-yl)-1H-pyrazole-3-carbonyl]hexahydropyridazine], the figure is 40 nM; as for `COc1ccc(-n2nc(C(=O)N3CCN(C)CC3)cc2-c2cscn2)nn1` [Example 131, 1-[1-(6-Methoxy-3-pyridazinyl)-5-(thiazol-4-yl)-1H-pyrazole-3-carbonyl]-4-methylpiperazine], 320 nM; as for `COc1ccc(-n2nc(C(=O)N3CCCOCC3)cc2-c2cscn2)nn1` [Example 137, 4-[1-(6-Methoxy-3-pyridazinyl)-5-(thiazol-4-yl)-1H-pyrazole-3-carbonyl]-1,4-oxazepane], 80 nM.
With `COc1ccc(-n2nc(C(=O)N3CCC(F)(F)CC3)cc2-c2cscn2)nn1` [Example 133, 1-[1-(6-Methoxy-3-pyridazinyl)-5-(thiazol-4-yl)-1H-pyrazole-3-carbonyl]-4,4-difluoropiperidine], in assay [1], the IC50 turned out to be 80 nM.
Consider `COc1ccc(-n2nc(C(=O)N3CCCOCC3)cc2-c2cscn2)cn1` [Example 139, 4-[1-(6-Methoxy-3-pyridyl)-5-(thiazol-4-yl)-1H-pyrazole-3-carbonyl]-1,4-oxazepane], for which, in assay [1], the concentration for half-maximal inhibition (IC50) was found to be 41 nM.

These data come from patent publication US20070254881A1, “Pyrazole Derivative” (DAIICHI PHARMACEUTICAL CO., LTD., priority 2004, published 2007).
